IC50 data for one molecule are collected here from ChEMBL document CHEMBL3875157, “Neurodegenerative diseases linked to misfolded proteins and their therapeutic approaches: A review” (Eur J Med Chem, 2016).

In this assay the target is Acetylcholinesterase (Homo sapiens, UniProt P22303). Briefly: Inhibition of acetylcholinesterase (unknown origin).
Chain of Acetylcholinesterase (P22303 whole entry): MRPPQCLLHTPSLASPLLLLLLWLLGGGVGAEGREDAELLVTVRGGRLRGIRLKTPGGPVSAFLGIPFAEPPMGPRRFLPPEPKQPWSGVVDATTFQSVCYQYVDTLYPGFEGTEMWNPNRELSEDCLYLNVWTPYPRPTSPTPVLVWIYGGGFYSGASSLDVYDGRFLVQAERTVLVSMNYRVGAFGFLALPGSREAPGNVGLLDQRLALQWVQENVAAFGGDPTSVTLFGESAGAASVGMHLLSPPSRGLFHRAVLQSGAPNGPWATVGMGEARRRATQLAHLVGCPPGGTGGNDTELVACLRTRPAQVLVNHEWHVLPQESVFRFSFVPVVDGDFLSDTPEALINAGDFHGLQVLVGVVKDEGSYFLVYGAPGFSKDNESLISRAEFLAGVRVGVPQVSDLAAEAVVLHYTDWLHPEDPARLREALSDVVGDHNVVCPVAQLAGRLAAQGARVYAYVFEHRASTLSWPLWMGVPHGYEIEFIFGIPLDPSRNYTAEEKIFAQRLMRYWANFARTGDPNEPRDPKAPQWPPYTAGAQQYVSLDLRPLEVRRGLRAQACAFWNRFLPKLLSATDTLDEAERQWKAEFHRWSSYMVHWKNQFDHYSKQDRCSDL

What is called IC50 is the concentration that gives 50% inhibition. `CCOC(=O)C1=C(C)Oc2nc3c(c(N)c2C1c1ccc(OC)cc1)CCCC3` (stereo unspecified) displayed an IC50 of 182 to 868 nM.
